These results are taken from patent US20090069301A1, “Acridine and Quinoline Derivatives as Sirtuin Modulators” (Sirtris Pharmaceuticals, Inc., priority 2005, published 2009).

Molecules are shown by their SMILES.

The IC50 is the concentration at which inhibition is half-maximal. A higher IC50 goes with weaker potency in that assay.

For the first test, the target named is T1, SIRT1 (Homo sapiens, UniProt Q96EB6).
T1 sequence (Q96EB6 1-747): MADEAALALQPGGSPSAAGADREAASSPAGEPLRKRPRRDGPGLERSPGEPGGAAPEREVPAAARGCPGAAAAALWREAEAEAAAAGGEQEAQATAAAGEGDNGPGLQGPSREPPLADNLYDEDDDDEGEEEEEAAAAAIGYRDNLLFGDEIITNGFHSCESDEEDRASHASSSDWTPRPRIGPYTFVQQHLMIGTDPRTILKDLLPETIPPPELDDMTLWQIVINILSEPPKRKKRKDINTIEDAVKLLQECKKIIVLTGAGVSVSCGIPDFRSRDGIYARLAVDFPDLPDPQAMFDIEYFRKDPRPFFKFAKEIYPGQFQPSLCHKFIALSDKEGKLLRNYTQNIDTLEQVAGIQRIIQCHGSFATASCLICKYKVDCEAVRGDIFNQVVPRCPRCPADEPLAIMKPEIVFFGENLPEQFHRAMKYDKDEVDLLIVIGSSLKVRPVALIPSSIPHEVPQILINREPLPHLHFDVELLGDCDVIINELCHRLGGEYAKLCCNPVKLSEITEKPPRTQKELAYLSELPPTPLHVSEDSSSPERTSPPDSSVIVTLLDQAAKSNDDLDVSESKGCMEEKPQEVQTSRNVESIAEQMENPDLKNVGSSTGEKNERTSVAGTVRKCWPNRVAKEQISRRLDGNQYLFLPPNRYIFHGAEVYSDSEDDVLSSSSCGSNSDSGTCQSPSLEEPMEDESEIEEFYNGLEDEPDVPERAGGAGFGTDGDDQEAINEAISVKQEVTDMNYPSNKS
The experiment in a line: Fluorescence polarization or mass spectrometry based assay to identify modulators of SIRT1 activity (p53-based peptide deacetylation).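 Also: recombinant His-tagged human SIRT1 deacetylating p53-derived acetylated peptide, detected by fluorescence polarization after trypsin cleavage, signal inversely tracking deacetylase activity, compared against activity without test compound.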 It is filed as biochemical. The note with it: activation of SIRT1, Table 4; read-out: ED50 (the source's name). Background: In fluorescence polarisation assays a small probe gives low polarisation when free and higher when bound to something large.
For the compound `Cc1ccc2nc(-c3ccco3)cc(C(=O)NCCN3CCCCC3)c2c1` [Compound 34], the EC50 was greater than 150 µM.

Turning to `O=C(NNc1c2ccccc2nc2ccccc12)c1cccnc1` [Compound 11], the EC50 was less than 50 µM.

For `CN(C)c1ccc(C(=O)NNc2cc(-c3ccccc3)nc3ccccc23)cc1` [Compound 25], the EC50 is greater than 150 µM.

As to `CC(C)c1cc(NC(=O)c2c3ccccc3nc3ccccc23)n(-c2ccccc2)n1` [Compound 118], the EC50 was less than 50 µM.

In the case of `Cc1ccc(-c2cccc(NC(=O)c3c4ccccc4nc4ccccc34)c2)cc1C` [Compound 130], the EC50 is greater than 150 µM.

`CN(NC(=O)c1ccncc1)c1c2ccccc2nc2ccccc12` [Compound 155]: the EC50 is less than 50 µM.

With `Cc1ccc2nc(-c3cccs3)cc(C(=O)N(C)CCN(C)C)c2c1` [Compound 51], the EC50 is greater than 150 µM.

As to `O=C(NCc1ccncc1)c1cc(-c2ccsc2)nc2ccccc12` [Compound 1], the EC50 is less than 50 µM.

Take `Cc1ccc2nc(-c3cccs3)cc(C(=O)NCCN3CCOCC3)c2c1` [Compound 6]: the EC50 was less than 50 µM.

Turning to `CC(C)c1cc(Nc2c3ccccc3nc3ccccc23)n(-c2ccccc2)n1` [Compound 131], the EC50 was greater than 150 µM.

As to `CCCOc1cccc(-c2cc(C(=O)NCCN3CCOCC3)c3ccccc3n2)c1` [Compound 4], the EC50 is greater than 150 µM.

In the case of `Cc1ccc2nc(-c3ccco3)cc(C(=O)NCCN(C)CCN(C)C)c2c1` [Compound 46], the EC50 is greater than 150 µM.

As to `O=C(Nc1c2c(nc3ccccc13)CCCC2)c1ccncc1` [Compound 157], the EC50 is greater than 150 µM.

`COc1cc(NC(=O)c2cc(-c3ccccc3)nc3ccccc23)cc(OC)c1OC` [Compound 27]: the EC50 was greater than 150 µM.

`O=C(Nc1ccccc1-n1cccc1)c1c2ccccc2nc2ccccc12` [Compound 129]: the EC50 was greater than 150 µM.

For `Cc1ccc2nc(-c3cccs3)cc(C(=O)N3CCCN(C)CC3)c2c1` [Compound 50], the EC50 is greater than 150 µM.

Take `CCCCc1ccc(NC(=O)c2c3c(nc4ccccc24)CCCC3)cc1` [Compound 160]: the EC50 is greater than 150 µM.

On to `Cc1ccc2nc(-c3ccco3)cc(C(=O)N3CCN(C)CC3)c2c1` [Compound 33], for which the EC50 is greater than 150 µM.

As for `COc1cc(C(=O)NN(C)c2c3ccccc3nc3ccccc23)cc(OC)c1OC` [Compound 154], the EC50 was greater than 150 µM.

For the compound `Cc1ccc2nc(-c3ccco3)cc(C(=O)NCCCN3CCN(C)CC3)c2c1` [Compound 47], the EC50 was greater than 150 µM.

Take `O=C(NNC(=O)c1c2ccccc2nc2ccccc12)c1cc(F)cc(F)c1` [Compound 134]: the EC50 is greater than 150 µM.

Consider `COc1cc(-c2nnc(-c3c4ccccc4nc4ccccc34)o2)cc(OC)c1OC` [Compound 137], for which the EC50 is less than 50 µM.

Take `Cc1ccc2nc(-c3cccs3)cc(C(=O)NCCCN3CCOCC3)c2c1` [Compound 53]: the EC50 is greater than 150 µM.

In the case of `O=C(NNc1cc(-c2ccccc2)nc2ccccc12)c1ccccn1` [Compound 22], the EC50 is less than 50 µM.

As to `c1ccc(NNc2c3ccccc3nc3ccccc23)nc1` [Compound 121], the EC50 is less than 50 µM.

Regarding `CCN(CC)S(=O)(=O)c1ccc(N2CCOCC2)c(NC(=O)c2cc(-c3ccccn3)nc3ccccc23)c1` [Compound 9], the EC50 was greater than 150 µM.

As for `Cc1ccc2nc(-c3ccco3)cc(C(=O)N3CCOCC3)c2c1` [Compound 35], the EC50 is greater than 150 µM.

Take `Cc1ccc2nc(-c3ccco3)cc(C(=O)NCCCN3CCOCC3)c2c1` [Compound 31]: the EC50 was greater than 150 µM.

Regarding `COc1cc(C(=O)NNc2c3ccccc3nc3ccccc23)cc(OC)c1OC` [Compound 3], the EC50 is less than 50 µM.

Consider `Cc1ccc2nc(-c3cccs3)cc(C(=O)N3CCCCC3)c2c1` [Compound 48], for which the EC50 is greater than 150 µM.

As for `COc1cc(C(=O)NNc2c3c(nc4ccccc24)CCCC3)cc(OC)c1OC` [Compound 120], the EC50 is less than 50 µM.

Turning to `Cc1ccc2nc(-c3ccco3)ccc2c1C(=O)NCCCN1CCCCC1` [Compound 20], the EC50 was greater than 150 µM.

For `COc1ccccc1N1CCN(C(=O)c2c3ccccc3nc3ccccc23)CC1` [Compound 136], the EC50 was greater than 150 µM.

Regarding `Cc1ccc2nc(-c3ccco3)cc(C(=O)N(C)CCN(C)C)c2c1` [Compound 32], the EC50 is greater than 150 µM.

With `CS(=O)(=O)c1ccc(F)c(NC(=O)c2c3ccccc3nc3ccccc23)c1` [Compound 135], the EC50 is greater than 150 µM.

In the case of `COc1ccc(C(=O)NNc2cc(-c3ccccc3)nc3ccccc23)cc1OC` [Compound 26], the EC50 is less than 50 µM.

In the case of `Cc1ccc2nc(-c3ccccc3)cc(C(=O)NCCCN3CCN(C)CC3)c2c1` [Compound 45], the EC50 was greater than 150 µM.

With `Cc1ccc2nc(-c3cccs3)ccc2c1C(=O)NCCCN1CCCCC1` [Compound 21], the EC50 was greater than 150 µM.

For `Cc1ccc2nc(-c3cccs3)cc(C(=O)NCCCN3CCN(C)CC3)c2c1` [Compound 18], the EC50 was greater than 150 µM.

In the case of `Cc1ccc2nc(-c3ccccc3)cc(C(=O)NCCCN3CCCCC3)c2c1` [Compound 44], the EC50 was greater than 150 µM.

Consider `COc1cc(C(=O)NNc2cc(-c3ccccc3)nc3ccccc23)cc(OC)c1OC` [Compound 24], for which the EC50 is greater than 150 µM.

Take `COc1cc(NCc2c3ccccc3nc3ccccc23)cc(OC)c1OC` [Compound 127]: the EC50 is greater than 150 µM.

Regarding `CC(C)c1cc(NCc2c3ccccc3nc3ccccc23)n(-c2ccccc2)n1` [Compound 125], the EC50 is greater than 150 µM.

For `O=C(NNc1c2ccccc2nc2ccccc12)c1ccncc1` [Compound 10], the EC50 was less than 50 µM.

Regarding `O=C(NNc1cc(-c2ccccc2)nc2ccccc12)c1ccc(Cl)cc1` [Compound 23], the EC50 is less than 50 µM.

Take `O=C(Nc1ccc2c(c1)OCO2)Nc1c2ccccc2nc2ccccc12` [Compound 153]: the EC50 was greater than 150 µM.

In the case of `c1ccc2c(c1)Oc1ccccc1C2n1nnc2ccccc21` [Compound 124], the EC50 is greater than 150 µM.

In the case of `Cc1ccc2nc(-c3ccco3)cc(C(=O)NCCCCN3CCN(C)CC3)c2c1` [Compound 17], the EC50 was greater than 150 µM.

Consider `Cc1ccc2nc(-c3cccs3)cc(C(=O)NCCN3CCCCC3)c2c1` [Compound 52], for which the EC50 is greater than 150 µM.

With `Cc1ccc2nc(-c3ccco3)cc(C(=O)N3CCCCC3)c2c1` [Compound 30], the EC50 was greater than 150 µM.

As to `O=C(Nc1ccc(N2CCCCC2)cc1)c1c2ccccc2nc2ccccc12` [Compound 128], the EC50 is greater than 150 µM.

`Cc1ccc2nc(-c3cccs3)cc(C(=O)N3CCN(C)CC3)c2c1` [Compound 49]: the EC50 was greater than 150 µM.

Staying with this test, now noted: inhibition of SIRT1, Table 5.
For `Cc1ccc2nc(-c3ccccc3)cc(C(=O)NCCCN3CCOCC3)c2c1` [Compound 169], the IC50 is greater than 150 µM.

Consider `Cc1ccc2nc(-c3ccccc3)cc(C(=O)NCCCCCN3CCOCC3)c2c1` [Compound 170], for which the IC50 was greater than 150 µM.

With `Cc1ccc2nc(-c3ccccc3)cc(C(=O)NCCCCCN3CCCCC3)c2c1` [Compound 171], the concentration for half-maximal inhibition (IC50) is greater than 150 µM.

Regarding `Cc1ccc2nc(-c3cccs3)cc(C(=O)N3CCOCC3)c2c1` [Compound 172], the IC50 was greater than 150 µM.
